Test results taken from patent publication US8524949B2, “Agomelatine hydrohalide complex and preparation method thereof” (Les Laboratories Servier, priority 2009, dated 2013).
Values after ≈ are worked out from the molar mass of the structure shown.

Experiment: Water solubility, HPLC with external standard
Type: physicochemical

COc1ccc2cccc(CCNC(C)=O)c2c1 [Agomelatine, N-[2-(7-methoxy-1-naphthyl)ethyl]-acetamide] gave a solubility of 1110 µg/mL (≈ 4.56 mM).
